The values below come from publication PMC11494653, “Teixobactin “Swapmers” with L Tail Stereochemistry Retain Antibiotic Activity” (The Journal of Organic Chemistry, 2024).

Values after ≈ are worked out from the molar mass of the structure shown. Positions of bridges follow the written chain, without caps; N, C: chain ends. Non-standard residues stand in square brackets, D forms with d. Residues, ends and D or L forms follow the SMILES beside them. Chains are numbered I, II in the order given. NMeF = CN[C@@H](Cc1ccccc1)C(=O)O; Nphe = O=C(O)CNCc1ccccc1

What all share (format): cell-based
For one assay, the system named is all bacteria tested. Kind of assay: MIC broth microdilution assay, summary over all bacteria. The source says:
(§1) We determined the MIC values of these teixobactin swapmer prodrugs against the Gram-positive bacteria Bacillus subtilis, Staphylococcus epidermidis, methicillin-susceptible Staphylococcus aureus (MSSA), and methicillin-resistant Staphylococcus aureus (MRSA) in a broth microdilution assay as described previously.[9],[10] We used the antibiotic vancomycin as a positive control and the Gram-negative bacterium Escherichia coli as a negative control. The MIC values for Lys10-teixobactin 1, Lys10-teixobactin prodrug 2, Arg10-teixobactin 6, and Arg10-teixobactin prodrug 7 are shown in Table 1 for comparison with the swapmer analogues.
(§2) We performed minimum inhibitory concentration (MIC) assays as previously described.[9] A concise procedure is detailed below.
(§3) Stock solutions of teixobactin analogues were prepared gravimetrically by dissolving an appropriate amount of peptide in 20 mg/mL sterile DMSO. The stock solutions were stored at −20 °C for subsequent experiments.
Bacillus subtilis (ATCC 6051), Staphylococcus epidermidis (ATCC 14990), methicillin-susceptible Staphylococcus aureus (MSSA) (ATCC 29213), and Escherichia coli (ATCC 10798) were cultured from glycerol stocks in Mueller-Hinton broth containing 0.002% polysorbate 80 overnight in a shaking incubator at 37 °C. Methicillin-resistant Staphylococcus aureus (MRSA) (ATCC 700698) was cultured from a glycerol stock in brain hearth infusion broth containing 0.002% polysorbate 80 overnight in a shaking incubator at 37 °C. […] Briefly, we have previously determined the CFU/mL for each bacterium at OD600 = 0.075 for 200 μL of bacterial culture in a 96-well plate. The OD600 of each overnight culture was determined, and then each culture was diluted to OD600 = 0.075. […]
Aliquots of the 20 mg/mL peptide stock solutions were diluted to make a 64 μg/mL solution in Mueller-Hinton broth containing 0.002% polysorbate 80 and a 64 μg/mL solution in brain heart infusion broth containing 0.002% polysorbate 80. […] The optical density measurements were measured at 600 nm using a 96-well UV–vis plate reader (MultiSkan GO, Thermo Scientific). […]
(Broth dilution looks for growth in wells or tubes with falling amounts of substance.)

Assay [1] deals with Staphylococcus epidermidis ATCC 14990. Kind of assay: microbe, parasite or virus in culture. Conditions: ATCC 14990, 16 h.
Excerpt: as §1, §2, §3
(§4) Bacillus subtilis (ATCC 6051), Staphylococcus epidermidis (ATCC 14990), methicillin-susceptible Staphylococcus aureus (MSSA) (ATCC 29213), and Escherichia coli (ATCC 10798) were cultured from glycerol stocks in Mueller-Hinton broth containing 0.002% polysorbate 80 overnight in a shaking incubator at 37 °C. Methicillin-resistant Staphylococcus aureus (MRSA) (ATCC 700698) was cultured from a glycerol stock in brain hearth infusion broth containing 0.002% polysorbate 80 overnight in a shaking incubator at 37 °C. After overnight incubation, each culture was diluted with the appropriate media (containing 0.002% polysorbate 80) to 1 × 10^6 colony-forming units (CFU)/mL as previously described.[12],[15],[16] Briefly, we have previously determined the CFU/mL for each bacterium at OD600 = 0.075 for 200 μL of bacterial culture in a 96-well plate. The OD600 of each overnight culture was determined, and then each culture was diluted to OD600 = 0.075. Cultures were further diluted to achieve 1 × 10^6 CFU/mL solutions.
(§5) Aliquots of the 20 mg/mL peptide stock solutions were diluted to make a 64 μg/mL solution in Mueller-Hinton broth containing 0.002% polysorbate 80 and a 64 μg/mL solution in brain heart infusion broth containing 0.002% polysorbate 80. The solutions were mixed by pipetting to ensure homogeneity. A 200-μL aliquot of a 64 μg/mL solution was transferred to a 96-well plate. 2-fold serial dilutions were made with media containing 0.002% polysorbate 80 across the 96-well plate to achieve a final volume of 100 μL in each well (initial concentrations ranging from 64 to 0.0625 μg/mL). A 100-μL aliquot of a 1 × 10^6 CFU/mL bacterial solution was added to each well in the series, resulting in final bacterial concentrations of 5 × 10^5 CFU/mL in each well. As 100 μL of bacteria were added to each well, the concentration of peptide was also diluted 2-fold (final concentrations ranging from 32 μg/mL to 0.03125 μg/mL). Each plate was covered with a lid and incubated at 37 °C for 16 h. The optical density measurements were measured at 600 nm using a 96-well UV–vis plate reader (MultiSkan GO, Thermo Scientific). The MIC values were taken as the lowest concentration that had no bacterial growth. MIC assays for each compound were performed in triplicate to ensure reproducibility.

Assay [2] has as its system Staphylococcus aureus (MRSA) ATCC 700698. Kind of assay: microbe, parasite or virus in culture. Conditions: ATCC 700698, 16 h.
Excerpt: as §1, §2, §3, §4, §5

Assay [3] concerns Staphylococcus aureus (MSSA) ATCC 29213. Kind of assay: microbe, parasite or virus in culture. To be noted: ATCC 29213, 16 h.
Excerpt: as §1, §2, §3, §4, §5

The test system of assay [4] is Bacillus subtilis ATCC 6051. Kind of assay: microbe, parasite or virus in culture. To be noted: for MIC Bacillus subtilis ATCC 6051: ATCC 6051, 16 h.
Excerpt: as §1, §2, §3, §4, §5

Assay [5] deals with Escherichia coli ATCC 10798. Kind of assay: microbe, parasite or virus in culture. Conditions: ATCC 10798, 16 h.
Excerpt: as §1, §2, §3, §4, §5

The mark [6] stands for this setting: concentration range tested up to 32 μg/mL.

With `CC[C@H](C)[C@H](NC(=O)CNCc1ccccc1)C(=O)N[C@@H](CO)C(=O)N[C@H](C(=O)N[C@@H](CCC(N)=O)C(=O)N[C@H](C(=O)OC[C@H](N)C(=O)N[C@H]1C(=O)N[C@@H](C)C(=O)N[C@@H](CCCCN)C(=O)N[C@@H]([C@@H](C)CC)C(=O)O[C@H]1C)[C@@H](C)CC)[C@@H](C)CC` [compound 5, N-Bn-Gly1,Ile4,Gln5,[Ile6-O-Ser7],Lys10-teixobactin] (I: H-[Nphe]ISIQI / II: H-S[dT]AKI; ester I:C-II:1, II:2-II:C), in the assay with all bacteria tested (all bacteria tested other than B. subtilis), the “antibiotic activity in words against all other bacteria tested” value was “inactive”. Also, the “MIC Staphylococcus epidermidis ATCC 14990” value in assay [1] is greater than 32 µg/mL. Further, in assay [2], the “MIC Staphylococcus aureus (MRSA) ATCC 700698” value is greater than 32 µg/mL. The “MIC Staphylococcus aureus (MSSA) ATCC 29213” value in assay [3] is greater than 32 µg/mL. The “MIC Bacillus subtilis ATCC 6051” value in assay [4] amounted to 32 µg/mL (≈ 26.6 µM). Further, the “antibiotic activity in words against B. subtilis” value in assay [4] (setting [6]) was “only very weakly active”. Besides, the “MIC Escherichia coli ATCC 10798” value in assay [5] was greater than 32 µg/mL.
Consider `CC[C@H](C)[C@H](NC(=O)[C@H](CCC(N)=O)NC(=O)[C@H](Cc1ccccc1)NC)C(=O)N[C@@H](CO)C(=O)N[C@H](C(=O)N[C@@H](CCC(N)=O)C(=O)N[C@H](C(=O)OC[C@H](N)C(=O)N[C@H]1C(=O)N[C@@H](C)C(=O)N[C@@H](CCCNC(=N)N)C(=O)N[C@@H]([C@@H](C)CC)C(=O)O[C@H]1C)[C@@H](C)CC)[C@@H](C)CC` [compound 9, N-Me-Phe0,Gln1,Ile4,Gln5,[Ile6-O-Ser7],Arg10-teixobactin] (I: H-[NMeF]QISIQI / II: H-S[dT]ARI; ester I:C-II:1, II:2-II:C), for which the “antibiotic activity in words against all bacteria tested” value in the assay on all bacteria tested (setting [6]) is “completely inactive”. Further, the “MIC Staphylococcus epidermidis ATCC 14990” value in assay [1] was greater than 32 µg/mL. Besides, in assay [2], the “MIC Staphylococcus aureus (MRSA) ATCC 700698” value is greater than 32 µg/mL. For the same compound, the “MIC Staphylococcus aureus (MSSA) ATCC 29213” value in assay [3] is greater than 32 µg/mL. For the same compound, the “MIC Bacillus subtilis ATCC 6051” value in assay [4] is greater than 32 µg/mL. The “MIC Escherichia coli ATCC 10798” value in assay [5] is greater than 32 µg/mL.
